Source: ChEMBL document CHEMBL4813932, “Terpenoid Constituents of Perovskia artemisioides Aerial Parts with Inhibitory Effects on Bacterial Biofilm Growth” (2021)

How the values were obtained:
Test in all cases: microbe, parasite or virus in culture
Type in all cases: functional
Listeria monocytogenes [1] = conditions: ATCC 7644, time 48 hrs
Description: Antibiofilm activity against Listeria monocytogenes ATCC 7644 assessed as inhibition of bacterial metabolism within the biofilm at 4 ug/ml measured after 48 hrs by MTT assay relative to control

Staphylococcus aureus [2] = conditions: ATCC 25923, time 48 hrs
Description: Antibiofilm activity against Staphylococcus aureus ATCC 25923 assessed as inhibition of biofilm formation at 8 ug/ml measured after 48 hrs by crystal violet staining based assay relative to control

Staphylococcus aureus [3] = conditions: ATCC 25923, time 48 hrs; remark: listed apart in the source
Description: Antibiofilm activity against Staphylococcus aureus ATCC 25923 assessed as inhibition of bacterial metabolism within the biofilm at 8 ug/ml measured after 48 hrs by MTT assay relative to control

Listeria monocytogenes [4] = conditions: ATCC 7644, time 48 hrs; remark: listed apart in the source
Description: Antibiofilm activity against Listeria monocytogenes ATCC 7644 assessed as inhibition of biofilm formation at 8 ug/ml measured after 48 hrs by crystal violet staining based assay relative to control

Escherichia coli [5] = conditions: DSM 8579, time 48 hrs
Description: Antibiofilm activity against Escherichia coli DSM 8579 assessed as inhibition of bacterial metabolism within the biofilm at 40 ug/ml measured after 48 hrs by MTT assay relative to control

Acinetobacter baumannii [6] = conditions: ATCC 19606 = CIP 70.34 = JCM 6841, time 48 hrs
Description: Antibiofilm activity against Acinetobacter baumannii ATCC 19606 assessed as inhibition of biofilm formation at 8 ug/ml measured after 48 hrs by crystal violet staining based assay relative to control

Pseudomonas aeruginosa [7] = conditions: ATCC 50071, time 48 hrs
Description: Antibiofilm activity against Pseudomonas aeruginosa ATCC 50071 assessed as inhibition of biofilm formation at 4 ug/ml measured after 48 hrs by crystal violet staining based assay relative to control

[8] = test system: Pectobacterium carotovorum; conditions: ATCC 15713, time 48 hrs
Description: Antibiofilm activity against Pectobacterium carotovorum ATCC 15713 assessed as inhibition of biofilm formation at 8 ug/ml measured after 48 hrs by crystal violet staining based assay relative to control

Pseudomonas aeruginosa [9] = conditions: ATCC 50071, time 48 hrs; remark: listed apart in the source
Description: Antibiofilm activity against Pseudomonas aeruginosa ATCC 50071 assessed as inhibition of bacterial metabolism within the biofilm at 8 ug/ml measured after 48 hrs by MTT assay relative to control

Staphylococcus aureus [10] = conditions: ATCC 25923, time 48 hrs; remark: listed apart in the source
Description: Antibiofilm activity against Staphylococcus aureus ATCC 25923 assessed as inhibition of biofilm formation at 4 ug/ml measured after 48 hrs by crystal violet staining based assay relative to control

[11] = test system: Pectobacterium carotovorum; conditions: ATCC 15713, time 48 hrs; remark: listed apart in the source
Description: Antibiofilm activity against Pectobacterium carotovorum ATCC 15713 assessed as inhibition of biofilm formation at 4 ug/ml measured after 48 hrs by crystal violet staining based assay relative to control

Escherichia coli [12] = conditions: DSM 8579, time 48 hrs; remark: listed apart in the source
Description: Antibiofilm activity against Escherichia coli DSM 8579 assessed as inhibition of biofilm formation at 80 ug/ml measured after 48 hrs by crystal violet staining based assay relative to control

Acinetobacter baumannii [13] = conditions: ATCC 19606 = CIP 70.34 = JCM 6841, time 48 hrs; remark: listed apart in the source
Description: Antibiofilm activity against Acinetobacter baumannii ATCC 19606 assessed as inhibition of biofilm formation at 4 ug/ml measured after 48 hrs by crystal violet staining based assay relative to control

Pseudomonas aeruginosa [14] = conditions: ATCC 50071, time 48 hrs; remark: listed apart in the source
Description: Antibiofilm activity against Pseudomonas aeruginosa ATCC 50071 assessed as inhibition of biofilm formation at 8 ug/ml measured after 48 hrs by crystal violet staining based assay relative to control

Pseudomonas aeruginosa [15] = conditions: ATCC 50071, time 48 hrs; remark: listed apart in the source
Description: Antibiofilm activity against Pseudomonas aeruginosa ATCC 50071 assessed as inhibition of bacterial metabolism within the biofilm at 4 ug/ml measured after 48 hrs by MTT assay relative to control

Listeria monocytogenes [16] = conditions: ATCC 7644, time 48 hrs; remark: listed apart in the source
Description: Antibiofilm activity against Listeria monocytogenes ATCC 7644 assessed as inhibition of biofilm formation at 4 ug/ml measured after 48 hrs by crystal violet staining based assay relative to control

Escherichia coli [17] = conditions: DSM 8579, time 48 hrs; remark: listed apart in the source
Description: Antibiofilm activity against Escherichia coli DSM 8579 assessed as inhibition of biofilm formation at 40 ug/ml measured after 48 hrs by crystal violet staining based assay relative to control

[18] = test system: Pectobacterium carotovorum; conditions: ATCC 15713, time 48 hrs; remark: listed apart in the source
Description: Antibiofilm activity against Pectobacterium carotovorum ATCC 15713 assessed as inhibition of bacterial metabolism within the biofilm at 8 ug/ml measured after 48 hrs by MTT assay relative to control

[19] = test system: Pectobacterium carotovorum; conditions: ATCC 15713, time 48 hrs; remark: listed apart in the source
Description: Antibiofilm activity against Pectobacterium carotovorum ATCC 15713 assessed as inhibition of bacterial metabolism within the biofilm at 4 ug/ml measured after 48 hrs by MTT assay relative to control

Acinetobacter baumannii [20] = conditions: ATCC 19606 = CIP 70.34 = JCM 6841, time 48 hrs; remark: listed apart in the source
Description: Antibiofilm activity against Acinetobacter baumannii ATCC 19606 assessed as inhibition of bacterial metabolism within the biofilm at 4 ug/ml measured after 48 hrs by MTT assay relative to control

Escherichia coli [21] = conditions: DSM 8579, time 48 hrs; remark: listed apart in the source
Description: Antibiofilm activity against Escherichia coli DSM 8579 assessed as inhibition of bacterial metabolism within the biofilm at 80 ug/ml measured after 48 hrs by MTT assay relative to control

Acinetobacter baumannii [22] = conditions: ATCC 19606 = CIP 70.34 = JCM 6841, time 48 hrs; remark: listed apart in the source
Description: Antibiofilm activity against Acinetobacter baumannii ATCC 19606 assessed as inhibition of bacterial metabolism within the biofilm at 8 ug/ml measured after 48 hrs by MTT assay relative to control

Staphylococcus aureus [23] = conditions: ATCC 25923, time 48 hrs; remark: listed apart in the source
Description: Antibiofilm activity against Staphylococcus aureus ATCC 25923 assessed as inhibition of bacterial metabolism within the biofilm at 4 ug/ml measured after 48 hrs by MTT assay relative to control

Listeria monocytogenes [24] = conditions: ATCC 7644, time 48 hrs; remark: listed apart in the source
Description: Antibiofilm activity against Listeria monocytogenes ATCC 7644 assessed as inhibition of bacterial metabolism within the biofilm at 8 ug/ml measured after 48 hrs by MTT assay relative to control

Row | Structure (SMILES) | inhibition at 4 µg/mL (Listeria monocytogenes [1]) | inhibition at 8 µg/mL (Staphylococcus aureus [2]) | inhibition at 8 µg/mL (Staphylococcus aureus [3]) | inhibition at 8 µg/mL (Listeria monocytogenes [4]) | inhibition at 40 µg/mL (Escherichia coli [5]) | inhibition at 8 µg/mL (Acinetobacter baumannii [6]) | inhibition at 4 µg/mL (Pseudomonas aeruginosa [7]) | inhibition at 8 µg/mL [8] | inhibition at 8 µg/mL (Pseudomonas aeruginosa [9]) | inhibition at 4 µg/mL (Staphylococcus aureus [10]) | inhibition at 4 µg/mL [11] | inhibition at 80 µg/mL (Escherichia coli [12]) | inhibition at 4 µg/mL (Acinetobacter baumannii [13]) | inhibition at 8 µg/mL (Pseudomonas aeruginosa [14]) | inhibition at 4 µg/mL (Pseudomonas aeruginosa [15]) | inhibition at 4 µg/mL (Listeria monocytogenes [16]) | inhibition at 40 µg/mL (Escherichia coli [17]) | inhibition at 8 µg/mL [18] | inhibition at 4 µg/mL [19] | inhibition at 4 µg/mL (Acinetobacter baumannii [20]) | also measured
1 | CC(C)c1cc2c(c(O)c1O)[C@@]1(C(=O)O)CCCC(C)(C)[C@@H]1CC2 [CARNOSIC ACID] | 33.3% | 83.7% | 35.5% | 0% | 2.7% | 91.2% | 51.7% | 25.8% | 42.7% | 64.1% | 43.6% | 78.5% | 18.9% | 83% | 27.7% | 0% | 60% | 47.3% | 41.3% | 36.3% | inhibition at 80 µg/mL (Escherichia coli [21]): 10.7%; inhibition at 8 µg/mL (Acinetobacter baumannii [22]): 57%; inhibition at 4 µg/mL (Staphylococcus aureus [23]): 33.5%; inhibition at 8 µg/mL (Listeria monocytogenes [24]): 55.6%
2 | CCCCCC [HEXANE] | 49.1% | 93.7% | 99.2% | 98.3% | 74.2% | 48.5% | 94.8% | 97.8% | 97% | 71.8% | 94.8% | 95.8% | 35.7% | 97.9% | 95.5% | 92.4% | 87.6% | 49.4% | 45.5% | 25.2% | inhibition at 80 µg/mL (Escherichia coli [21]): 78%; inhibition at 8 µg/mL (Acinetobacter baumannii [22]): 34.7%; inhibition at 4 µg/mL (Staphylococcus aureus [23]): 98.6%; inhibition at 8 µg/mL (Listeria monocytogenes [24]): 77.3%
3 | CO[C@@H]1c2cc(C(C)C)c(O)c(O)c2[C@@]23CCCC(C)(C)[C@@H]2[C@@H]1OC3=O | 23.6% | 91.8% | 34.6% | 0% | 0% | 21% | 55.8% | 67.7% | 1.5% | 34.4% | 35.5% | 0% | 12.7% | 76.5% | 0% | 0% | 0% | 5.7% | 4.4% | 49.2% | inhibition at 80 µg/mL (Escherichia coli [21]): 6.1%; inhibition at 8 µg/mL (Acinetobacter baumannii [22]): 38.8%; inhibition at 4 µg/mL (Staphylococcus aureus [23]): 45.3%; inhibition at 8 µg/mL (Listeria monocytogenes [24]): 29.7%
4 | CC(C)c1cc2c(c(O)c1O)C[C@@]1(O)[C@@H](O)CCC(C)(C)[C@@H]1CC2 | 9.6% | 79.7% | 78.2% | 0% | 0% | 51.7% | 33.4% | 0% | 0% | 39.3% | 0% | 0% | 48.6% | 65.7% | 0% | 0% | 0% | 1.5% | 0% | 0% | inhibition at 80 µg/mL (Escherichia coli [21]): 0%; inhibition at 8 µg/mL (Acinetobacter baumannii [22]): 96.7%; inhibition at 4 µg/mL (Staphylococcus aureus [23]): 75.8%; inhibition at 8 µg/mL (Listeria monocytogenes [24]): 13.1%
